Publication PMC3195361 (Bioorganic & medicinal chemistry, 2011)

Key:
[1] = Solubility of the peptide-paclitaxel conjugates; format: physicochemical; details: cold water; white powder
[2] = test system: H2009 cells (αvβ6-positive); format: binding, Human; details: fluorescein-labeled conjugate, 1 hour, flow cytometry
[3] = test system: H2009 cells; test: Cell viability assay; format: cell-based, Human; details: for IC50: 10 min exposure followed by 120 h recovery in media
[4] = test system: H460 cells; test: Cell viability assay; format: cell-based, Human; details: H460.1 column; 10 min exposure followed by 120 h recovery in media
[5] = test system: integrin αvβ6; details: read-out: half-maximal binding affinity; tetramerized H2009.1 peptide; cited from earlier work
[6] = test system: H2009 cells; test: Cell cycle analysis by PI DNA staining and flow cytometry; format: cell-based, Human; details: for effect on cell cycle: H2009 cells
[7] = test system: H2009 xenograft; format: in vivo, NOD/SCID mice; details: 5 mg/kg based on paclitaxel; for tumor growth rate compared to saline: i.v. tail vein, days 18, 21, 24, 27, 30
[8] = 5 mg/kg based on paclitaxel, 5 injections; data not shown
[9] = PBS pH 7.4, 37° C, after 96 hours
[10] = test system: porcine esterase
[11] = 1 μM paclitaxel column, time not printed in table (24 h elsewhere in the source)

CC(=O)O[C@H]1C(=O)[C@@]2(C)[C@H]([C@H](OC(=O)c3ccccc3)[C@]3(O)C[C@H](OC(=O)[C@H](OC(=O)CCN4C(=O)CC(SC[C@H](NC(=O)[C@H](CCCCNC(=O)[C@H](CCCCNC(=O)CCN5C(=O)CC(SC[C@H](NC(=O)CCOCCOCCOCCOCCOCCOCCOCCOCCOCCOCCOCCOCCNC(=O)[C@H](CCCNC(=N)N)NC(=O)[C@H](CC(C)C)NC(=O)[C@@H](NC(=O)CNC(=O)[C@H](CCC(N)=O)NC(=O)[C@H](CC(C)C)NC(=O)[C@H](CCCNC(=N)N)NC(=O)[C@H](CC(C)C)NC(=O)[C@H](C)NC(=O)[C@@H](N)CC(=O)O)[C@@H](C)O)C(N)=O)C5=O)NC(=O)CCN5C(=O)CC(SC[C@H](NC(=O)CCOCCOCCOCCOCCOCCOCCOCCOCCOCCOCCOCCOCCNC(=O)[C@H](CCCNC(=N)N)NC(=O)[C@H](CC(C)C)NC(=O)[C@@H](NC(=O)CNC(=O)[C@H](CCC(N)=O)NC(=O)[C@H](CC(C)C)NC(=O)[C@H](CCCNC(=N)N)NC(=O)[C@H](CC(C)C)NC(=O)[C@H](C)NC(=O)[C@@H](N)CC(=O)O)[C@@H](C)O)C(N)=O)C5=O)NC(=O)[C@H](CCCCNC(=O)CCN5C(=O)CC(SC[C@H](NC(=O)CCOCCOCCOCCOCCOCCOCCOCCOCCOCCOCCOCCOCCNC(=O)[C@H](CCCNC(=N)N)NC(=O)[C@H](CC(C)C)NC(=O)[C@@H](NC(=O)CNC(=O)[C@H](CCC(N)=O)NC(=O)[C@H](CC(C)C)NC(=O)[C@H](CCCNC(=N)N)NC(=O)[C@H](CC(C)C)NC(=O)[C@H](C)NC(=O)[C@@H](N)CC(=O)O)[C@@H](C)O)C(N)=O)C5=O)NC(=O)CCN5C(=O)CC(SC[C@H](NC(=O)CCOCCOCCOCCOCCOCCOCCOCCOCCOCCOCCOCCOCCNC(=O)[C@H](CCCNC(=N)N)NC(=O)[C@H](CC(C)C)NC(=O)[C@@H](NC(=O)CNC(=O)[C@H](CCC(N)=O)NC(=O)[C@H](CC(C)C)NC(=O)[C@H](CCCNC(=N)N)NC(=O)[C@H](CC(C)C)NC(=O)[C@H](C)NC(=O)[C@@H](N)CC(=O)O)[C@@H](C)O)C(N)=O)C5=O)C(=O)NCCC(=O)O)C4=O)[C@@H](NC(=O)c4ccccc4)c4ccccc4)C(C)=C1C3(C)C)[C@]1(OC(C)=O)CO[C@@H]1C[C@@H]2O (stereo partly drawn) [scrambled peptide-paclitaxel conjugate]
solubility [1]: soluble in cold water | binding to H2009 cells [2]: no binding was observed | IC50 [3]: Not Reached ^b | IC50 [4]: Not Reached ^b

CC(C)C[C@H](NC(=O)[C@H](CCC(N)=O)NC(=O)[C@H](CCCNC(=N)N)NC(=O)[C@H](CC(C)C)NC(=O)[C@@H](NC(=O)[C@H](C)NC(=O)[C@H](CC(C)C)NC(=O)[C@H](CC(=O)O)NC(=O)CNC(=O)[C@@H](N)CCCNC(=N)N)[C@@H](C)O)C(=O)NCCOCCOCCOCCOCCOCCOCCOCCOCCOCCOCCOCCOCCC(=O)N[C@@H](CSC1CC(=O)N(CCC(=O)NCCCC[C@H](NC(=O)CCN2C(=O)CC(SC[C@H](NC(=O)CCOCCOCCOCCOCCOCCOCCOCCOCCOCCOCCOCCOCCNC(=O)[C@H](CC(C)C)NC(=O)[C@H](CCC(N)=O)NC(=O)[C@H](CCCNC(=N)N)NC(=O)[C@H](CC(C)C)NC(=O)[C@@H](NC(=O)[C@H](C)NC(=O)[C@H](CC(C)C)NC(=O)[C@H](CC(=O)O)NC(=O)CNC(=O)[C@@H](N)CCCNC(=N)N)[C@@H](C)O)C(N)=O)C2=O)C(=O)NCCCC[C@H](NC(=O)[C@H](CCCCNC(=O)CCN2C(=O)CC(SC[C@H](NC(=O)CCOCCOCCOCCOCCOCCOCCOCCOCCOCCOCCOCCOCCNC(=O)[C@H](CC(C)C)NC(=O)[C@H](CCC(N)=O)NC(=O)[C@H](CCCNC(=N)N)NC(=O)[C@H](CC(C)C)NC(=O)[C@@H](NC(=O)[C@H](C)NC(=O)[C@H](CC(C)C)NC(=O)[C@H](CC(=O)O)NC(=O)CNC(=O)[C@@H](N)CCCNC(=N)N)[C@@H](C)O)C(N)=O)C2=O)NC(=O)CCN2C(=O)CC(SC[C@H](NC(=O)CCOCCOCCOCCOCCOCCOCCOCCOCCOCCOCCOCCOCCNC(=O)[C@H](CC(C)C)NC(=O)[C@H](CCC(N)=O)NC(=O)[C@H](CCCNC(=N)N)NC(=O)[C@H](CC(C)C)NC(=O)[C@@H](NC(=O)[C@H](C)NC(=O)[C@H](CC(C)C)NC(=O)[C@H](CC(=O)O)NC(=O)CNC(=O)[C@@H](N)CCCNC(=N)N)[C@@H](C)O)C(N)=O)C2=O)C(=O)N[C@@H](CS)C(=O)NCCC(=O)O)C1=O)C(N)=O (stereo partly drawn) [compound 2]
EC50 [5]: 0.05 nM

CC(=O)O[C@H]1C(=O)[C@@]2(C)[C@H]([C@H](OC(=O)c3ccccc3)[C@]3(O)C[C@H](OC(=O)[C@H](O)[C@@H](NC(=O)c4ccccc4)c4ccccc4)C(C)=C1C3(C)C)[C@]1(OC(C)=O)CO[C@@H]1C[C@@H]2O [Paclitaxel, reference compound]
effect on cell viability within the first 48 h ([3]; 1 μM for 10 min, then recovery): rapid reduction of cell viability | IC50 [3]: 14.8 ± 3.3 nM | IC50 [4]: 23.6 ± 7.4 nM | G2/M [6, 11]: 73.5 | Polyploid [6, 11]: 14 | S [6, 11]: 4.1 | effect on cell cycle ([6]; 1 μM, at 24 h): G2/M cell cycle arrest was observed | tumor growth rate compared to saline [7]: slowed | animal weights [8]: remained steady

CC(=O)O[C@H]1C(=O)[C@@]2(C)[C@H]([C@H](OC(=O)c3ccccc3)[C@]3(O)C[C@H](OC(=O)[C@H](OC(=O)CCN4C(=O)CC(SC[C@H](NC(=O)[C@H](CCCCNC(=O)[C@H](CCCCNC(=O)CCN5C(=O)CC(SC[C@H](NC(=O)CCOCCOCCOCCOCCOCCOCCOCCOCCOCCOCCOCCOCCNC(=O)[C@H](CC(C)C)NC(=O)[C@H](CCC(N)=O)NC(=O)[C@H](CCCNC(=N)N)NC(=O)[C@H](CC(C)C)NC(=O)[C@@H](NC(=O)[C@H](C)NC(=O)[C@H](CC(C)C)NC(=O)[C@H](CC(=O)O)NC(=O)CNC(=O)[C@@H](N)CCCNC(=N)N)[C@@H](C)O)C(N)=O)C5=O)NC(=O)CCN5C(=O)CC(SC[C@H](NC(=O)CCOCCOCCOCCOCCOCCOCCOCCOCCOCCOCCOCCOCCNC(=O)[C@H](CC(C)C)NC(=O)[C@H](CCC(N)=O)NC(=O)[C@H](CCCNC(=N)N)NC(=O)[C@H](CC(C)C)NC(=O)[C@@H](NC(=O)[C@H](C)NC(=O)[C@H](CC(C)C)NC(=O)[C@H](CC(=O)O)NC(=O)CNC(=O)[C@@H](N)CCCNC(=N)N)[C@@H](C)O)C(N)=O)C5=O)NC(=O)[C@H](CCCCNC(=O)CCN5C(=O)CC(SC[C@H](NC(=O)CCOCCOCCOCCOCCOCCOCCOCCOCCOCCOCCOCCOCCNC(=O)[C@H](CC(C)C)NC(=O)[C@H](CCC(N)=O)NC(=O)[C@H](CCCNC(=N)N)NC(=O)[C@H](CC(C)C)NC(=O)[C@@H](NC(=O)[C@H](C)NC(=O)[C@H](CC(C)C)NC(=O)[C@H](CC(=O)O)NC(=O)CNC(=O)[C@@H](N)CCCNC(=N)N)[C@@H](C)O)C(N)=O)C5=O)NC(=O)CCN5C(=O)CC(SC[C@H](NC(=O)CCOCCOCCOCCOCCOCCOCCOCCOCCOCCOCCOCCOCCNC(=O)[C@H](CC(C)C)NC(=O)[C@H](CCC(N)=O)NC(=O)[C@H](CCCNC(=N)N)NC(=O)[C@H](CC(C)C)NC(=O)[C@@H](NC(=O)[C@H](C)NC(=O)[C@H](CC(C)C)NC(=O)[C@H](CC(=O)O)NC(=O)CNC(=O)[C@@H](N)CCCNC(=N)N)[C@@H](C)O)C(N)=O)C5=O)C(=O)NCCC(=O)O)C4=O)[C@@H](NC(=O)c4ccccc4)c4ccccc4)C(C)=C1C3(C)C)[C@]1(OC(C)=O)CO[C@@H]1C[C@@H]2O (stereo partly drawn) [compound 3]
solubility [1]: soluble in cold water | time at which reduction of cell viability begins ([3]; 1 μM for 10 min, then recovery): 72 h | IC50 [4]: Not Reached ^b | G1 ([6]; 1 μM, 24 h): 44.9 | G2/M ([6]; 1 μM, 24 h): 39.0 | Polyploid ([6]; 1 μM, 24 h): 8.0 | S ([6]; 1 μM, 24 h): 8.1 | G1 ([6]; 1 μM, 48 h): 11.4 | G2/M ([6]; 1 μM, 48 h): 57.1 | Polyploid ([6]; 1 μM, 48 h): 26.9 | S ([6]; 1 μM, 48 h): 4.5 | increase in number of cells in G2/M ([6]; 1 μM, at 48 h): ~ 2 fold | increase in polyploid cells ([6]; 1 μM, at 48 h): 3 fold | G1 ([6]; 5 μM, 24 h): 35.8 | G2/M ([6]; 5 μM, 24 h): 45.8 | Polyploid ([6]; 5 μM, 24 h): 11.7 | S ([6]; 5 μM, 24 h): 6.7 | G1 ([6]; 5 μM, 48 h): 23.9 | G2/M ([6]; 5 μM, 48 h): 53.9 | Polyploid ([6]; 5 μM, 48 h): 23.6 | S ([6]; 5 μM, 48 h): 8.5 | effect on cell cycle ([6]; 1 μM, at 24 h): the cell cycle remains unperturbed | more G2/M arrest at increased conjugate concentration ([6]; increased concentration (5 μM in Table II), at 24 h): Approximately 50% | delay of effect on tumor growth relative to free drug [7]: 7 days | tumor growth rate compared to saline [7]: reduced the rate of tumor growth compared to saline | paclitaxel released [9]: minimal paclitaxel was released | increase of paclitaxel release with esterase versus PBS ([10]; esterase in PBS vs PBS): 7 fold | paclitaxel released ([10]; porcine esterase (18u/mL) in PBS, 37° C, by 48 h): 34.1%
